Laboratory results published in US10702572B2, “Methods and compounds to suppress viral genome release and packaging” (Carnegie Mellon University, priority 2015, dated 2020).
Where two headings read alike, the source gives them in different places. Where no end group is shown, it is not given here.

How the values were obtained:
[1] = cited from earlier work
[2] = LD50 (species not stated); assay type: in vivo; details: conversion in brackets
[3] = tested on: packaged viral DNA in the capsid; details: low-salt buffer, Mg2+ removed by EDTA
Source text: (§1) [formula] […] Single-Molecule Fluorescence Measurements of Phage Ejection Ensemble Kinetics.
Phage particles were imaged using a Nikon 2000E2 microscope with a spinning disk confocal scan head (Yokagawa Industries, Tokyo, Japan).

phage λ = assay: Intracapsid DNA transition temperature by ITC and SAXS; set-up: species or system bacteriophage λ; details: 78% WT DNA length phage λ, 20 mM EDTA added to 10 mM MgCl2 Tris-buffer
Source text: WT bacteriophage λ cI857, with a genome length of 48.5 kb was produced by thermal induction of lysogenic E. coli strain AE1 derived from the 52773 strain. Two phage λ mutants with shorter genome lengths (78 and 94% of the WT DNA length) were produced using a similar procedure. The receptor was the LamB protein purified from pop 154, a strain of E. coli K12 in which the LamB gene has been transduced from Shigella sonnei 3070. Phage and LamB purification details are described in Evilevitch A., et al., Osmotic pressure inhibition of DNA ejection from phage. Proc. Natl. Acad. Sci. U.S.A. 2003; 100:9292-9295 and Ivanovska I., et al., Internal DNA pressure modifies stability of WT phage. Proc. Natl. Acad. Sci. U.S.A. 2007; 104:9603-9608.
All calorimetric measurements were performed using the MicroCal iTC200 system manufactured by GE Healthcare, Life Sciences. […] J. Mol. Biol. 2010; 395:1079-1087.
Small angle X-ray scattering (SAXS) measurements were carried out at the 12-ID B station at the Advanced Photon Source at Argonne National Laboratory. A 12-KeV X-ray beam was used to illuminate the sample with an overall scattering vector q range from 0.006 to 0.850 Å-1. A total of 120 μl of phage solution (˜5×1013 pfu/ml) was injected into a flow-through glass capillary and the solution was oscillated during the SAXS measurement with a flow rate of 10 μl/s. Forty scans with 1 s X-ray exposure time were collected and averaged for each sample. A buffer solution of the dialysis buffer for phage samples was measured using the same SAXS setup, which was further subtracted as the background. After the background subtraction, the scattered intensity I versus q was plotted and the DNA peak region was truncated from 0.18 Å-1 to 0.33 Å-1. This DNA diffraction peak was fitted with a Gaussian curve plus a linear background using function (1), where q0 is the peak center, w is the peak width, A0 is the peak area, k is the slope of the linear background and c is the offset.
as §1
ITC and SAXS assays were used to determine DNA transition temperatures for WT λ-DNA length phage in MgCl2 Tris-buffer with MgCl2 concentrations varied between 5 and 50 mM, see FIGS. 3A-3C. The intracapsid DNA transition occurs at temperature T*, corresponding to either a discontinuity in the linear dependence of ΔHej on temperature (FIG. 3A) or to an abrupt change in the linear decay of the DNA diffraction peak area versus temperature measured by SAXS (FIG. 3B). DNA transition temperatures as a function of Mg-concentration determined by both techniques are in good agreement with each other and are summarized in FIG. 3C. […] However, the inventors have previously shown that at DNA packing density in phage λ, the screening effect of Mg-ions will become progressively smaller with increasing Mg-concentration due to the counter-ion saturation (Evilevitch A., et al., Effects of salt concentrations and bending energy on the extent of ejection of phage genomes. Biophys. J. 2008; 94:1110-1120). Furthermore, if the Mg ion concentration continues to increase, the counterions are forced into regions on the helices that begin to increase the effective repulsions between packaged DNA strands. […]

HSV-1, HSV-2, VZV, HCMV = assay: Antiviral screening study of condensing compounds; assay type: cell-based; details: result in words
Protocol: PAMAM Dendrimer G0, branched polyethylenimine (bPEI), Arg5+, DAB-AM-4, and DAB-AM-8 were utilized as test compounds. These compounds are described above.
Monolayers of HFF cells were prepared in six-well plates and incubated at 37° C. for 2 d to allow the cells to reach confluency. Media was then aspirated from the wells and 0.2 ml of virus was added to each of three wells to yield 20-30 plaques in each well. The virus was allowed to adsorb to the cells for 1 h and the plates were agitated every 15 minutes. Compounds were diluted in assay media consisting of MEM with Earl's salts supplemented with 2% FBS, L-glutamine, penicillin, and gentamycin. Solutions ranging from 300 μM to 0.1 μM were added to duplicate wells and the plates were incubated for various times, depending on the virus used. For HSV-1 and -2, the monolayers were then stained with 1% crystal violet in 20% methanol and the unbound dye removed by washing with dH2O. For all other assays, the cell monolayer was stained with 1% Neutral Red solution for 4 h then the stain was aspirated and the cells were washed with PBS. For all assays, plaques were enumerated using a stereomicroscope and the concentration of compound that reduced plaque formation by 50% (EC50) was interpolated from the experimental data.

cell membrane = details: not told; cited from earlier work

O=C(O)[C@@H](S)[C@@H](S)C(=O)O [DMSA, meso-2,3-Dimercaptosuccinic acid]
LD50 ([1]; species and route not given): 5011 mg/kg | LD50 as concentration [2]: ~27.5 mM

O=C(O)CN(CCN(CC(=O)O)CC(=O)O)CC(=O)O [EDTA, Ethylenediaminetetraacetic acid]
DNA ejection from the capsid [3]: essentially stalled | infection [3]: no infection is observed | DNA transition temperature T* (phage λ): ~36 °C

O=C(O)CN(CCOCCOCCN(CC(=O)O)CC(=O)O)CC(=O)O [EGTA, Ethylene glycol-bis(2-aminoethylether)-N,N,N′,N′-tetraacetic acid]
LD50 ([1]; in vivo): 3587 mg/kg | LD50 as concentration [2]: ~9.5 mM

RRRRR [Arg5+]
antiviral activity in the screening study (HSV-1, HSV-2, VZV, HCMV): showed antiviral activity | permeation of the cell membrane (cell membrane): permeate the cell membrane
